In US9808470B2, “Estrogenic components for use in the treatment of neurological disorders” (UNIVERSITE DE LIEGE, priority 2012, dated 2017):

Experiments:
Assay type in all cases: in vivo
[1] = Ex.3 neuroprotective HIE rat model: rectal temperature; conditions: E4 1, 5, 10, 50 mg/kg/day ip PND4-7 before HI; 0, 2, 4 h after hypoxia
Description: The rectal temperature of the rat pups was measured with a multipurpose thermometer (BAT-10R, Physitemp Instruments Inc., Clifton, N.J., US) along with a rectal probe (RET-4, BioMedical Instruments, Zollnitz, Germany) at 0, 2, and 4 hours after exposure to hypoxic insult. To keep the variability of the temperature low, measurements of rectal temperature were made in a 25° C. room 15 min after removal of the pups from the nest (except the 1st post-hypoxic measurement which was done immediately). It has been shown that the rectal temperature corresponds very well to the brain core temperature (Thoresen et al. 1996. Arch Dis Child Fetal Neonatal 74: F3-F9, Yager et al. 1993. Pediatr Res 34: 525-529).
Newborn rat pups were assigned to one of the following 6 groups from postnatal day 4: Sham group (n=24), Vehicle group (n=14), E4 1 mg/kg/per day group (n=11), E4 5 mg/kg/per day group (n=14), E4 10 mg/kg/per day group (n=14), or E4 50 mg/kg/per day group (n=19). From postnatal day 4, rat pups were intraperitoneally injected either vehicle (Vehicle group) or E4 (1, 5, 10, or 50 mg/kg/per day in accordance to the E4 group assignment) or neither vehicle nor E4 (Sham group). […]

[2] = tested on: Microtubule-associated protein 2 (MAP2); assay: Ex.4 therapeutic HIE rat model: MAP2 staining; conditions: PND14
Description: The brain sections were processed for immunohistochemical detection of neuronal cytoskeletal disruption. For antigen retrieval, the sections were heated in 10 mmol/L citrate buffer (pH 6.0) at 100° C. for 10 minutes. Endogenous peroxidase activity was blocked with 3% hydrogen peroxide for 10 minutes and after a second blocking with 5% normal goat serum, the sections were incubated with anti-microtubule-associated protein 2 (MAP2) antibody, diluted 1:1000 (mouse monoclonal antibody; Sigma, St. Louis, Mo., US) 1 h at room temperature. After rinsing, biotinylated goat anti-mouse immunoglobulin G (Vector Laboratories, Burlingame, Calif.) was added, and antibody detection was performed with the avidin-biotin complex method (Vector Laboratories), with 3,3′-diaminobenzidine (DAB) as the chromogen. Following the reaction with DAB, the slides were washed, dehydrated, and coverslipped.
Samples were analyzed with the aid of an image scanner (Nanozoomer Virtual Microscopy, Hamamatsu, Tokyo, Japan) and the ImageJ software (NIH, US). The MAP2 positive areas in the ipsilateral and contralateral hemispheres were measured. The ratio of the MAP2 positive areas was calculated as the MAP2 positive area of the ipsilateral hemisphere divided by the MAP2 positive area of the contralateral hemisphere. The ratio of the MAP2 positive area in the Sham group was considered by default as 1.0.
To study the therapeutic effect of estetrol, newborn rat pups were assigned to one of the following 6 groups at postnatal day 7: sham group (n=29), vehicle group (n=20), 1 mg/kg E4 group (n=16), 5 mg/kg E4 group (n=19), 10 mg/kg day E4 (n=17) and 50 mg/kg day E4 group (n=15). At postnatal day 7 animals were anesthetized with isoflurane (induction, 3.0%; maintenance, 1.5%), and the rat pups from vehicle and E4 groups passed through surgery encompassing left common carotid artery double ligation and cut. After surgery, the pups were returned to their dams and allowed to recover for 1 hour. The pups were then placed in a humidified hypoxic in vivo cabinet (CoyLab). Hypoxia was produced by the inhalation of 11%-8% of oxygen balanced by nitrogen at decreased concentration of oxygen for 20 minutes, followed by inhalation of 8% oxygen and 92% nitrogen at constant concentration for 35 minutes. All the manipulations were performed at 37° C.
Upon retrieval from the hypoxia chamber the rat pups were injected intraperitoneally either by vehicle (vehicle group) or by E4 (1 mg/kg, 5 mg/kg, 10 mg/kg or 50 mg/kg) in accordance to the group assignment. The animals from the sham group went through similar procedures but proceeded neither left common carotid artery ligation and cut followed by hypoxia nor vehicle or estetrol administration. Rat pups recovered with their dams until being sacrificed at postnatal day 14.

[3] = tested on: doublecortin (DCX); assay: Ex.3 neuroprotective HIE rat model: doublecortin staining
Description: The sections were heated in 10 mmol/L citrate buffer (pH 6.0) at 100° C. for 10 minutes. Endogenous peroxidase activity was blocked with 3% hydrogen peroxide for 10 minutes and after a second blocking with 5% normal goat serum, the sections were incubated with anti-doublecortin (DCX) antibody, diluted 1:1000 (rabbit polyclonal antibody; Abcam, Cambridge, UK) and anti-vascular endothelial growth factor (VEGF) antibody, diluted 1:100 (mouse monoclonal antibody; Abcam, Cambridge, UK) overnight at 4° C. After rinsing, Alexa Fluor® goat anti-rabbit, diluted 1:1000 and Alexa Fluor® goat anti-mouse, diluted 1:1000 (Invitrogen Inc., Ghent, Belgium) were added and sections were incubated 1 h at room temperature. Mounting medium containing 4′,6-diamidino-2-phenylindole (DAPI) for fluorescent studies was used (Vector Laboratories). Samples were analyzed with the aid of a microscope (Olympus Vanox AHBT3, Olympus), and the ImageJ software (NIH). The percentage of positively stained cells was quantified as a sum of positively stained either DCX or VEGF cells divided by the total number of DAPI positive cells expressed in percentage.
Newborn rat pups were assigned to one of the following 6 groups from postnatal day 4: Sham group (n=24), Vehicle group (n=14), E4 1 mg/kg/per day group (n=11), E4 5 mg/kg/per day group (n=14), E4 10 mg/kg/per day group (n=14), or E4 50 mg/kg/per day group (n=19). From postnatal day 4, rat pups were intraperitoneally injected either vehicle (Vehicle group) or E4 (1, 5, 10, or 50 mg/kg/per day in accordance to the E4 group assignment) or neither vehicle nor E4 (Sham group). At day 7, 30 minutes after last injection, animals were anesthetized with isoflurane (induction, 3.0%; maintenance, 1.5%), and the rat pups from Vehicle and E4 groups passed through surgery encompassing left common carotid artery double ligation and cut. After the procedure, the pups were returned to their dams and were allowed to recover for 1 hour. The pups were then placed in the humidified hypoxic in vivo cabinet (CoyLab, Grass Lake, Mich., USA). Hypoxia was produced by the inhalation of 11%-8% of oxygen balanced by nitrogen at decreased concentration of oxygen for 20 minutes, followed by inhalation of 8% oxygen and 92% nitrogen at constant concentration for 35 minutes. All the manipulations were performed at 37° C. The Sham group went through similar procedures without left common carotid artery ligation followed by hypoxia nor injection. Rat pups recovered with their dams and reared normally until being sacrificed at postnatal day 14.

rectal temperature [1]: did not affect the body temperature
SMILES: C[C@]12CC[C@@H]3c4ccc(O)cc4CC[C@H]3[C@@H]1[C@@H](O)[C@@H](O)[C@@H]2O [E4, 1,3,5(10)-estratrien-3,15α,16α,17β-tetrol]
ratio of MAP2-positive area (ipsilateral/contralateral) ([2]; 1 mg/kg E4 single ip dose after HI): 0.943±0.028
ratio of MAP2-positive area (ipsilateral/contralateral) ([2]; 5 mg/kg E4 single ip dose after HI): 0.89±0.037
ratio of MAP2-positive area (ipsilateral/contralateral) ([2]; 10 mg/kg E4 single ip dose after HI): 0.938±0.044
ratio of MAP2-positive area (ipsilateral/contralateral) ([2]; 50 mg/kg E4 single ip dose after HI): 0.966±0.036
percentage of DCX positively stained cells ([3]; 5 mg/kg E4 ip PND4-7 before HI, CA1): 35.2±3.309%
percentage of DCX positively stained cells ([3]; 5 mg/kg E4 ip PND4-7 before HI, CA2/CA3): 30.3±3.7%
percentage of DCX positively stained cells ([3]; 10 mg/kg E4 ip PND4-7 before HI, CA1): 34.1±6.664%
percentage of DCX positively stained cells ([3]; 10 mg/kg E4 ip PND4-7 before HI, DG): 55.8±5.658%
percentage of DCX positively stained cells ([3]; 10 mg/kg E4 ip PND4-7 before HI, cortex): 52.1±7.762%
